Results: patent publication US4170656A, “Compositions containing cis-2-benzoyl-3-hydroxy-crotononitrile used to treat inflammation and joint deterioration” (priority 1978, dated 1979)

What was measured:
[1] = Adjuvant induced arthritis in rats (Freund's adjuvant); type: in vivo, Royal Hart, Wistar strain rats; conditions: for Dead/Treated At 21 Days: days 0-13
Protocol: Groups of three Royal Hart, Wistar strain rats weighing 200±10 grams each were injected intradermally in the right hind paw with Freund's adjuvant (dried human tubercle bacilli in a mineral oil vehicle) at a dose of 2 mg./kg. of body weight. Test compound was administered orally in a 1.5% starch vehicle at various doses once daily on days 0 through 13 post challenge. Control rats were treated in a similar manner, but given only starch vehicle. On the 14th and 21st day post challenge the diameter of the injected paw (primary lesion) was measured by micrometer caliper. The volume of inflamed paws were estimated from these measurements and the results are expressed as percent inhibition of swelling as compared to controls. At the same time, the other inflamed sites, such as ears, paws and tail (seconday lesions) were observed and each rat was graded as to degree of inflammation and swelling present. The grading is based on a scale of 0 to 24, where 0 represents a complete absence of induced arthritic nodules and 24 represents the maximum degree of inflammation. The mean grade for each treated group is calculated and the effects of each compound are expressed as percent inhibition of the control grade. Table I records the results of tests conducted with a typical compound of the present invention and known anti-inflammatory agents.

[2] = Ultraviolet induced erythema in guinea pigs; type: in vivo, Albino guinea pigs; set-up: key: sum of 3 sites, each 0 = none, 0.5 = faint, 1.0 = distinct; max 3.0; conditions: maximum 3.0
Protocol: Albino guinea pigs were depilitated on their flanks, the evening before testing, with a standard mixture of barium sulfide and gum acacia. On the morning of the test, groups of four guinea pigs were dosed by gavage one hour prior (-1 hour) to ultraviolet exposure. At 0 hour they were restrained in a plastic container which allows exposure of 3 circular spots. They were then exposed to ultraviolet irradiation from a "Hanovia" Kromayer lamp, model 10, for 60 seconds. At one and four hours, the degree of erythema for each of the three sites was assessed according to the following scoring system: 0= no erythema, 0.5=incomplete circle or faint erythema, and 1.0=complete circle of distinct erythema. Thus, the maximum score for each animal was 3.0.

[3] = Carrageenin induced paw edema in rats (acute anti-inflammatory activity); type: in vivo, Royal Hart, Wistar strain rats; conditions: 250 mg./kg. by gavage; 5 hours after drug (4 hours after carrageenin); ratio greater than 1.41 is active
Protocol: In determining the acute anti-inflammatory activity of the cis-2-benzoyl-3-hydroxy-2-alkenonitriles of the present invention, Royal Hart, Wistar strain rats, ranging in weight from 80 to 90 grams were used. The rats were fasted overnight prior to dosing but had free access to water. The test compounds were administered in aqueous suspension, by gavage, in a volume of 1.7 ml. per 50 grams of rat [corresponds to hydration volume used by Winter, et al., Proc. Soc. […] The phlogistic agent used was carrageenin prepared as a sterile 1% suspension in 0.9% aqueous sodium chloride for routine testing. A volume of 0.05 ml. was injected through a 26 gauge needle into the plantar tissue of the right hind paw. Measurements were made 5 hours after drug administration (4 hours after carrageenin challenge). Volumes of both the normal and carrageenin inflammed feet were determined. The difference between the two measurements is considered to be the increased edema due to the carrageenin administration.

[4] = S. Wong et al. (1973); G. R. Bobalick et al. (1974); cited from earlier work

## CC(=O)Oc1ccccc1C(=O)O [Aspirin]
[1]; oral 50 mg./kg., Day 14
  % Inhibition of Control Grade (secondary lesion): 12%
  % Inhibition of Swelling (primary lesion): 23%
  Mean Weight Gain: 56 grams
[1]; oral 50 mg./kg., Day 21
  % Inhibition of Control Grade (secondary lesion): 9%
  % Inhibition of Swelling (primary lesion): 3%
  Mean Weight Gain: 44 grams
[1]; oral 50 mg./kg.
  Dead/Treated At 21 Days: 2/21
[1]; oral 100 mg./kg., Day 14
  % Inhibition of Control Grade (secondary lesion): 19%
  % Inhibition of Swelling (primary lesion): 36%
  Mean Weight Gain: 48 grams
[1]; oral 100 mg./kg., Day 21
  % Inhibition of Control Grade (secondary lesion): 8%
  % Inhibition of Swelling (primary lesion): 13%
  Mean Weight Gain: 53 grams
[1]; oral 100 mg./kg.
  Dead/Treated At 21 Days: 18/63
[1]; oral 200 mg./kg., Day 14
  % Inhibition of Control Grade (secondary lesion): 26%
  % Inhibition of Swelling (primary lesion): 48%
  Mean Weight Gain: 40 grams
[1]; oral 200 mg./kg., Day 21
  % Inhibition of Control Grade (secondary lesion): 17%
  % Inhibition of Swelling (primary lesion): 27%
  Mean Weight Gain: 44 grams
[1]; oral 200 mg./kg.
  Dead/Treated At 21 Days: 10/66
[1]; oral 400 mg./kg., Day 14
  % Inhibition of Control Grade (secondary lesion): 58%
  % Inhibition of Swelling (primary lesion): 73%
  Mean Weight Gain: 41 grams
[1]; oral 400 mg./kg., Day 21
  % Inhibition of Control Grade (secondary lesion): 45%
  % Inhibition of Swelling (primary lesion): 48%
  Mean Weight Gain: 55 grams
[1]; oral 400 mg./kg.
  Dead/Treated At 21 Days: 18/57
[2]; oral 31.3 mg./kg., 1 hour
  Erythema Score (avg.): 1.2
[2]; oral 31.3 mg./kg., 4 hours
  Erythema Score (avg.): 2.3
[2]; oral 62.5 mg./kg., 1 hour
  Erythema Score (avg.): 0.8
[2]; oral 62.5 mg./kg., 4 hours
  Erythema Score (avg.): 2.0
[2]; oral 125 mg./kg., 1 hour
  Erythema Score (avg.): 0.1
[2]; oral 125 mg./kg., 4 hours
  Erythema Score (avg.): 2.0
[2]; oral 250 mg./kg., 1 hour
  Erythema Score (avg.): 0.1
[2]; oral 250 mg./kg., 4 hours
  Erythema Score (avg.): 1.2
[3]
  C/T Edema Ratio: 2.8

## C/C(O)=C(\C#N)C(=O)c1ccccc1 [Cis-2-benzoyl-3-hydroxy-crotononitrile, Cis-2-benzoyl-3-hydroxycrotononitrile]
[1]; oral 25 mg./kg., Day 14
  % Inhibition of Control Grade (secondary lesion): 10%
  % Inhibition of Swelling (primary lesion): 26%
  Mean Weight Gain: 37 grams
[1]; oral 25 mg./kg., Day 21
  % Inhibition of Control Grade (secondary lesion): 1%
  % Inhibition of Swelling (primary lesion): 14%
  Mean Weight Gain: 28 grams
[1]; oral 25 mg./kg.
  Dead/Treated At 21 Days: 3/18
[1]; oral 50 mg./kg., Day 14
  % Inhibition of Control Grade (secondary lesion): 14%
  % Inhibition of Swelling (primary lesion): 64%
  Mean Weight Gain: 51 grams
[1]; oral 50 mg./kg., Day 21
  % Inhibition of Control Grade (secondary lesion): 17%
  % Inhibition of Swelling (primary lesion): 54%
  Mean Weight Gain: 45 grams
[1]; oral 50 mg./kg.
  Dead/Treated At 21 Days: 3/36
[1]; oral 100 mg./kg., Day 14
  % Inhibition of Control Grade (secondary lesion): 38%
  % Inhibition of Swelling (primary lesion): 68%
  Mean Weight Gain: 43 grams
[1]; oral 100 mg./kg., Day 21
  % Inhibition of Control Grade (secondary lesion): 46%
  % Inhibition of Swelling (primary lesion): 53%
  Mean Weight Gain: 41 grams
[1]; oral 100 mg./kg.
  Dead/Treated At 21 Days: 5/18
[1]; oral, days 0 through 13
  progression of the arthritis and associated joint deterioration: appears to suppress the progression of the arthritis and associated joint deterioration
[2]; oral 15.6 mg./kg., 1 hour
  Erythema Score (avg.): 2.3
[2]; oral 15.6 mg./kg., 4 hours
  Erythema Score (avg.): 2.5
[2]; oral 31.3 mg./kg., 1 hour
  Erythema Score (avg.): 0.8
[2]; oral 31.3 mg./kg., 4 hours
  Erythema Score (avg.): 2.3
[2]; oral 62.5 mg./kg., 1 hour
  Erythema Score (avg.): 0.8
[2]; oral 62.5 mg./kg., 4 hours
  Erythema Score (avg.): 2.4
[2]; oral 125 mg./kg., 1 hour
  Erythema Score (avg.): 0
[2]; oral 125 mg./kg., 4 hours
  Erythema Score (avg.): 1.3
[3]
  C/T Edema Ratio: 2.3

## COc1ccc2c(c1)c(CC(=O)O)c(C)n2C(=O)c1ccc(Cl)cc1 [Indomethacin]
[1]; oral 0.25 mg./kg., Day 14
  % Inhibition of Control Grade (secondary lesion): 22%
  % Inhibition of Swelling (primary lesion): 30%
  Mean Weight Gain: 51 grams
[1]; oral 0.25 mg./kg., Day 21
  % Inhibition of Control Grade (secondary lesion): 4%
  % Inhibition of Swelling (primary lesion): 4%
  Mean Weight Gain: 57 grams
[1]; oral 0.25 mg./kg.
  Dead/Treated At 21 Days: 0/9
[1]; oral 0.5 mg./kg., Day 14
  % Inhibition of Control Grade (secondary lesion): 25%
  % Inhibition of Swelling (primary lesion): 40%
  Mean Weight Gain: 53 grams
[1]; oral 0.5 mg./kg., Day 21
  % Inhibition of Control Grade (secondary lesion): 17%
  % Inhibition of Swelling (primary lesion): 20%
  Mean Weight Gain: 51 grams
[1]; oral 0.5 mg./kg.
  Dead/Treated At 21 Days: 5/54
[1]; oral 1 mg./kg., Day 14
  % Inhibition of Control Grade (secondary lesion): 34%
  % Inhibition of Swelling (primary lesion): 46%
  Mean Weight Gain: 63 grams
[1]; oral 1 mg./kg., Day 21
  % Inhibition of Control Grade (secondary lesion): 20%
  % Inhibition of Swelling (primary lesion): 19%
  Mean Weight Gain: 65 grams
[1]; oral 1 mg./kg.
  Dead/Treated At 21 Days: 9/54
[1]; oral 2 mg./kg., Day 14
  % Inhibition of Control Grade (secondary lesion): 38%
  % Inhibition of Swelling (primary lesion): 51%
  Mean Weight Gain: 68 grams
[1]; oral 2 mg./kg., Day 21
  % Inhibition of Control Grade (secondary lesion): 25%
  % Inhibition of Swelling (primary lesion): 24%
  Mean Weight Gain: 68 grams
[1]; oral 2 mg./kg.
  Dead/Treated At 21 Days: 8/57
[2]; oral 3.9 mg./kg., 1 hour
  Erythema Score (avg.): 1.2
[2]; oral 3.9 mg./kg., 4 hours
  Erythema Score (avg.): 2.9
[2]; oral 7.8 mg./kg., 1 hour
  Erythema Score (avg.): 0.6
[2]; oral 7.8 mg./kg., 4 hours
  Erythema Score (avg.): 2.3
[2]; oral 15.6 mg./kg., 1 hour
  Erythema Score (avg.): 0
[2]; oral 15.6 mg./kg., 4 hours
  Erythema Score (avg.): 2.0
[2]; oral 31.3 mg./kg., 1 hour
  Erythema Score (avg.): 0.1
[2]; oral 31.3 mg./kg., 4 hours
  Erythema Score (avg.): 1.9
[2]; oral 62.5 mg./kg., 1 hour
  Erythema Score (avg.): 0
[2]; oral 62.5 mg./kg., 4 hours
  Erythema Score (avg.): 1.3
[2]; oral 125 mg./kg., 1 hour
  Erythema Score (avg.): 0
[2]; oral 125 mg./kg., 4 hours
  Erythema Score (avg.): 1.3
[2]; oral 250 mg./kg., 1 hour
  Erythema Score (avg.): 0
[2]; oral 250 mg./kg., 4 hours
  Erythema Score (avg.): 1.0
[3]
  C/T Edema Ratio: 2.9
[4]
  arthritic paw swelling: inhibit arthritic paw swelling
  joint and bone deterioration: prevent joint and bone deterioration

## CCCCC1C(=O)N(c2ccccc2)N(c2ccccc2)C1=O [Phenylbutazone]
[1]; oral 18.8 mg./kg., Day 14
  % Inhibition of Control Grade (secondary lesion): 4%
  % Inhibition of Swelling (primary lesion): 31%
  Mean Weight Gain: 50 grams
[1]; oral 18.8 mg./kg., Day 21
  % Inhibition of Control Grade (secondary lesion): 8%
  % Inhibition of Swelling (primary lesion): 7%
  Mean Weight Gain: 45 grams
[1]; oral 18.8 mg./kg.
  Dead/Treated At 21 Days: 2/21
[1]; oral 37.5 mg./kg., Day 14
  % Inhibition of Control Grade (secondary lesion): 18%
  % Inhibition of Swelling (primary lesion): 56%
  Mean Weight Gain: 53 grams
[1]; oral 37.5 mg./kg., Day 21
  % Inhibition of Control Grade (secondary lesion): 13%
  % Inhibition of Swelling (primary lesion): 14%
  Mean Weight Gain: 53 grams
[1]; oral 37.5 mg./kg.
  Dead/Treated At 21 Days: 5/39
[1]; oral 75 mg./kg., Day 14
  % Inhibition of Control Grade (secondary lesion): 27%
  % Inhibition of Swelling (primary lesion): 62%
  Mean Weight Gain: 51 grams
[1]; oral 75 mg./kg., Day 21
  % Inhibition of Control Grade (secondary lesion): 15%
  % Inhibition of Swelling (primary lesion): 28%
  Mean Weight Gain: 50 grams
[1]; oral 75 mg./kg.
  Dead/Treated At 21 Days: 2/39
[1]; oral 150 mg./kg., Day 14
  % Inhibition of Control Grade (secondary lesion): 54%
  % Inhibition of Swelling (primary lesion): 75%
  Mean Weight Gain: 40 grams
[1]; oral 150 mg./kg., Day 21
  % Inhibition of Control Grade (secondary lesion): 31%
  % Inhibition of Swelling (primary lesion): 44%
  Mean Weight Gain: 50 grams
[1]; oral 150 mg./kg.
  Dead/Treated At 21 Days: 2/27
[2]; oral 7.8 mg./kg., 1 hour
  Erythema Score (avg.): 1.1
[2]; oral 7.8 mg./kg., 4 hours
  Erythema Score (avg.): 2.9
[2]; oral 15.6 mg./kg., 1 hour
  Erythema Score (avg.): 0.4
[2]; oral 15.6 mg./kg., 4 hours
  Erythema Score (avg.): 2.3
[2]; oral 31.3 mg./kg., 1 hour
  Erythema Score (avg.): 0.4
[2]; oral 31.3 mg./kg., 4 hours
  Erythema Score (avg.): 1.7
[2]; oral 62.5 mg./kg., 1 hour
  Erythema Score (avg.): 0.3
[2]; oral 62.5 mg./kg., 4 hours
  Erythema Score (avg.): 0.9
[2]; oral 125 mg./kg., 1 hour
  Erythema Score (avg.): 0.1
[2]; oral 125 mg./kg., 4 hours
  Erythema Score (avg.): 1.1
[2]; oral 250 mg./kg., 1 hour
  Erythema Score (avg.): 0
[2]; oral 250 mg./kg., 4 hours
  Erythema Score (avg.): 0.5
[3]
  C/T Edema Ratio: 2.3
